The results in this text go back to ChEMBL document CHEMBL1759969 (Bioorg Med Chem Lett, 2011).

Bounds are passed on as bounds.

For assay [1], the target named is T1, Melatonin receptor type 1B (Homo sapiens, UniProt P49286).
T1 sequence (P49286 whole entry): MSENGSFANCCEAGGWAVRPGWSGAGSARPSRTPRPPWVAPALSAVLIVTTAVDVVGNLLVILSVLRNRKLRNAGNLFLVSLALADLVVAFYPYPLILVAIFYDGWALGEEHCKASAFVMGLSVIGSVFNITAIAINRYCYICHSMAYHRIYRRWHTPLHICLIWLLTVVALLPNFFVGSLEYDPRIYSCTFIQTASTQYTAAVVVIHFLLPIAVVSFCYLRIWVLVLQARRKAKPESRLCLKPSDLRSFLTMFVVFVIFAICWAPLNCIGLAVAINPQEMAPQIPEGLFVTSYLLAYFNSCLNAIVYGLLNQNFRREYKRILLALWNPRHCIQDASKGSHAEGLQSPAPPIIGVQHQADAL
The assay is described as follows: Displacement of 2-[125I]-iodomelatonin from human MT2 receptor expressed in HEK293 cells. Format: cell-based.

For assay [2], the target named is T2, Melatonin receptor type 1A (Homo sapiens, UniProt P48039). Briefly: Displacement of 2-[125I]-iodomelatonin from human MT1 receptor expressed in HEK293 cells. Format: cell-based.
T2 sequence (P48039 whole entry): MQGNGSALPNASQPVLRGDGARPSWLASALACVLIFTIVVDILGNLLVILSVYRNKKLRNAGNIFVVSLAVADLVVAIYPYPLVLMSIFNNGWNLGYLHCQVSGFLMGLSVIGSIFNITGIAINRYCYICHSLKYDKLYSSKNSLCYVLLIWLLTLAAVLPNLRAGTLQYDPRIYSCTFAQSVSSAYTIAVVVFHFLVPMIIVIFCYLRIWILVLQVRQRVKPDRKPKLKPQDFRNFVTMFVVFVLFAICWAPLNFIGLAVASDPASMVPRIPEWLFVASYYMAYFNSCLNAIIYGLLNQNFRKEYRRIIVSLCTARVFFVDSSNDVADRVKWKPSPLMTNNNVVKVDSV
A further assay is filed under the species Homo sapiens. Briefly: Selectivity ratio of Ki for human MT1 receptor to Ki for human MT2 receptor.
Assay [3] concerns the target T1, Melatonin receptor type 1B. Briefly: Agonist activity at human MT2 receptor expressed in CHO cells by [35S]GTPgamma binding assay. Format: functional, cell-based.
For assay [4], the target named is T2, Melatonin receptor type 1A. Briefly: Agonist activity at human MT1 receptor expressed in CHO cells by [35S]GTPgamma binding assay. Format: functional, cell-based.

With `COc1ccc2c(CN3CCOCC3)cn(CCNC(C)=O)c2n1`, the Ki in assay [1] was 550 nM; in assay [2], over 10000 nM. Further, the Ratio Ki in the assay filed under Homo sapiens was over 20.
As for `COc1ccc2c(I)cn(CCNC(C)=O)c2n1`, the values for the EC50 in assay [3] and in assay [4] were 11 nM and 32 nM, respectively. Further, the figures for the Ki in assay [1] and in assay [2] were 5 nM and 16 nM, respectively. The Ratio Ki in the assay filed under Homo sapiens came to 3.2.
For the compound `COc1ccc2c3c(n(CCNC(C)=O)c2n1)CCCC3`, the results for the EC50 in assay [3] and in assay [4] were 1.3 nM and 16 nM, respectively. In addition, the figures for the Ki in assay [1] and in assay [2] were 0.68 nM and 9 nM, respectively. In addition, the Ratio Ki in the assay filed under Homo sapiens amounted to 13.2.
Consider `COc1ccc2c(CN3CCC(C(=O)c4ccc(F)cc4)CC3)cn(CCNC(C)=O)c2n1`, for which the Ki came to 7440 nM in assay [1] and 9490 nM in assay [2]. The Ratio Ki in the assay filed under Homo sapiens was 1.3.
On to `COc1ccc2[nH]cc(CCNC(C)=O)c2n1`, for which the values for the EC50 in assay [3] and in assay [4] were 1.1 nM and 12 nM, respectively. Also, the Ki in assay [1] worked out at 0.3 nM; in assay [2], 0.2 nM. The Ratio Ki in the assay listed under Homo sapiens is 0.7.
Take `COc1ccc2c(C(=O)C(F)(F)F)cn(CCNC(C)=O)c2n1`: the values for the EC50 in assay [3] and in assay [4] were 10 nM and 93 nM, respectively. For the same compound, the Ki is 30 nM in assay [1] and 91 nM in assay [2]. The Ratio Ki in the assay filed under Homo sapiens is 3.
On the same counts, the results for `CCC(=O)NCCn1ccc2ccc(OC)nc21` are 1.4 nM, 5.1 nM, 0.28 nM, 3.3 nM and 11.8.
With `COc1ccc2c(CN3CCCCC3)cn(CCNC(C)=O)c2n1`, the Ki in assay [1] is 742 nM; in assay [2], 510 nM. The Ratio Ki in the assay filed under Homo sapiens was determined as 0.7.
`CCCC(=O)NCCn1ccc2ccc(OC)nc21` registered an EC50 in assay [3] of 0.7 nM. In addition, the inhibition constant Ki in assay [1] stood at 0.3 nM.
Take `COc1ccc2c(CN(C)Cc3ccccc3)cn(CCNC(C)=O)c2n1`: the Ki amounted to 4010 nM in assay [1] and 10500 nM in assay [2]. Further, the Ratio Ki in the assay filed under Homo sapiens turned out to be 2.6.
In assay [3], `COc1cnc2[nH]cc(CCNC(C)=O)c2c1` gave an EC50 of 380 nM. This compound also showed a Ki in assay [1] of 117 nM.
Take `COc1ccc2ccn(CCNC(C)=O)c2n1`: the results for the half-maximal effective concentration (EC50) in assay [3] and in assay [4] were 2.1 nM and 4 nM, respectively. In addition, the Ki is 0.6 nM in assay [1] and 1.4 nM in assay [2]. Further, the Ratio Ki in the assay listed under Homo sapiens is 2.3.
With `COc1ccc2c(CN(C)C)cn(CCNC(C)=O)c2n1`, the Ki in assay [1] and in assay [2] was over 10000 nM each time.
`COc1ccc2c(CN3CCN(c4cccc(Cl)c4)CC3)cn(CCNC(C)=O)c2n1`: the Ki came to 929 nM in assay [1] and 1210 nM in assay [2]. For the same compound, in the assay listed under Homo sapiens, the Ratio Ki stood at 1.3.
Take `CNCc1cn(CCNC(C)=O)c2nc(OC)ccc12`: the Ki in assay [1] turned out to be 1090 nM; in assay [2], 8300 nM. For the same compound, in the assay filed under Homo sapiens, the Ratio Ki is 7.6.

A word on the Ki: it is a dissociation constant, usually derived from enzyme kinetics or from competition with a known ligand. Lower therefore signals higher affinity. In general, EC50 refers to the concentration at which the effect is half-maximal. Lower therefore signals greater potency.
